We go through 2 compounds from paper PMC12355328 (ACS Omega, 2025).

Data set [1] in a line: Dye-leakage assay, POPG/TOCL. Particulars: 100 μM POPG/TOCL LUV; 298 K.
A short description of data set [2]: Dye-leakage assay, POPE/POPG. Particulars: 100 μM POPE/POPG LUV; 298 K.
Data set [3] in a line: Circular dichroism spectroscopy. The class given is physicochemical. To be noted: 50 μM, 100 mM NaF, 10 mM KH2PO4, pH 7.5; averaged of three repeats, 298 K. (CD spectra are sensitive to the conformation of chiral molecules.)
The next data set relates to E. coli BAA 3051. Nature of the data set: MIC assay, ciprofloxacin-resistant E. coli. Format: cell-based, Escherichia coli. Particulars: E. coli BAA 3051 (ciprofloxacin-resistant); MHB, 6 h, OD600; concentration at which growth surpassed 10%.
The target of a further data set is DNA gyrase (Escherichia coli, UniProt P0AES4+P0AES6). Nature of the data set: DNA gyrase inhibition. The class given is biochemical.
DNA gyrase, sequence (P0AES4 whole entry, one chain of several): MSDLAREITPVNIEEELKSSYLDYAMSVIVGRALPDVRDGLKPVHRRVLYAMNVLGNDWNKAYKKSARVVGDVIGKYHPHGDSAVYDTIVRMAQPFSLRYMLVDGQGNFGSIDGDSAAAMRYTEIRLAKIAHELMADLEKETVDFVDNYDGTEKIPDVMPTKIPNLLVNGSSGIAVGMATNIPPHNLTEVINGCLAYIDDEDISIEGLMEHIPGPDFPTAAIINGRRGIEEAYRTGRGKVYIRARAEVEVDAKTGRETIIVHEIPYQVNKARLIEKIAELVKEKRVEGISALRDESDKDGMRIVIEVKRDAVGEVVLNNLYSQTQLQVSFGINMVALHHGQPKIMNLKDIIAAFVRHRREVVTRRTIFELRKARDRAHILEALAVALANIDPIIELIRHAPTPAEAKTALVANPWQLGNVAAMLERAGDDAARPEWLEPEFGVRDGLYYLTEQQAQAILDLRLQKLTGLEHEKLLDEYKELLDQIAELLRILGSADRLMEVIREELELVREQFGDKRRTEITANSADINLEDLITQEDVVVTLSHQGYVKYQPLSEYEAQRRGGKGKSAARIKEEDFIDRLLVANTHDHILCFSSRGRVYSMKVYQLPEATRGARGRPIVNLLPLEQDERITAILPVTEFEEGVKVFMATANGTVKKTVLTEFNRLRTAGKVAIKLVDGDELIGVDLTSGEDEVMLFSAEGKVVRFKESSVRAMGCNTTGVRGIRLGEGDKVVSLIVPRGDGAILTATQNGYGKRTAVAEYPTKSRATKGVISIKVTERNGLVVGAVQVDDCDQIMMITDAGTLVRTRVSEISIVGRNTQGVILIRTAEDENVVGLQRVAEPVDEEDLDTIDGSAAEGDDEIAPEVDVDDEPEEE
The next data set concerns the target DnaK (Escherichia coli, UniProt P0A6Y8). Nature of the data set: DnaK binding assay.
In a further data set the test system is E. coli ATCC25922. Description: MIC assay, ciprofloxacin-sensitive E. coli. The class given is cell-based, Escherichia coli. To be noted: MHB, 6 h, OD600, concentration at which growth surpassed 10%.

≈ marks a conversion by molar mass, not a printed value. Residues, ends and D or L forms follow the SMILES beside them. Where only a bound is given, the exact number is not on record here.

DnaK, sequence (P0A6Y8 whole entry): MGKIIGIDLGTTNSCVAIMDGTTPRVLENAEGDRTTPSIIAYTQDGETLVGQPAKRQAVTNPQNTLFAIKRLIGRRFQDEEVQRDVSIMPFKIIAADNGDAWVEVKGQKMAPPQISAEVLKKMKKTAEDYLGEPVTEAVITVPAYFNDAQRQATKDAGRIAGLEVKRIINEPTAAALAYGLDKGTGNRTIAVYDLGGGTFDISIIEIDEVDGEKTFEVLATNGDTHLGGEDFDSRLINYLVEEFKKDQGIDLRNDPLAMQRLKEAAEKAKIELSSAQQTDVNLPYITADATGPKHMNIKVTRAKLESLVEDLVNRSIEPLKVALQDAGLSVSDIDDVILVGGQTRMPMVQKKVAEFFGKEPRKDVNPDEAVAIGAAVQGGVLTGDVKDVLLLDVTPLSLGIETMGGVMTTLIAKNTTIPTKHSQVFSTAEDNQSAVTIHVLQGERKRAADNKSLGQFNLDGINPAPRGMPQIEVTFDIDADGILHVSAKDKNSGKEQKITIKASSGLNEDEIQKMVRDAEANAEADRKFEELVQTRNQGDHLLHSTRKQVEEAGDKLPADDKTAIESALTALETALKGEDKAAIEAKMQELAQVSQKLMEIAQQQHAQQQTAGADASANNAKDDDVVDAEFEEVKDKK

For the compound `O=C(O)c1cn(C2CC2)c2cc(N3CCNCC3)c(F)cc2c1=O` [ciprofloxacin], the “leakage profile (in words)” value in data set [1] was “showed a similar trend as in POPC”; in data set [2], “showed a similar trend to POPC”. For the same compound, the “CD: conformation / aggregation in buffer (in words)” value in data set [3] is “not optically active in CD”.

As a reminder, the MIC is the smallest concentration in the dilution series that meets the test's criterion for growth inhibition. Read a high MIC as weaker potency. The term IC50 denotes the point on the concentration scale where inhibition reaches its midpoint. The term Ki denotes the dissociation constant of the complex between target and ligand, obtained from inhibition or displacement. Low values mean a stronger hold on the target, high ones a looser hold on the target. For `CC[C@H](C)[C@H](NC(=O)[C@H](CCCNC(=N)N)NC(=O)[C@H](CCCNC(=N)N)NC(=O)[C@@H]1CCCN1C(=O)[C@@H]1CCCN1C(=O)[C@H](CCCNC(=N)N)NC(=O)[C@@H]1CCCN1C(=O)[C@H](CCCNC(=N)N)NC(=O)[C@@H]1CCCN1C(=O)[C@H](CC(C)C)NC(=O)[C@H](Cc1ccc(O)cc1)NC(=O)[C@@H]1CCCN1C(=O)[C@@H]1CCCN1C(=O)[C@H](CCCCN)NC(=O)[C@H](CC(=O)O)NC(=O)[C@@H](N)C(C)C)C(=O)N[C@@H](Cc1ccc(O)cc1)C(=O)N[C@@H](CC(N)=O)C(=O)N[C@@H](CCCNC(=N)N)C(N)=O` [oncocin] (H-VDKPPYLPRPRPPRRIYNR-NH2), the MIC against E. coli BAA 3051 and against E. coli ATCC25922 was 1 µM (≈ 2.39 µg/mL) throughout. The values for the IC50 on DNA gyrase and on DnaK were more than 10000 nM and 1540 nM, respectively. The same compound came in with a Ki at DnaK of 390 nM.
